Laboratory results from US20070043104A1, “UII-modulating compounds and their use” (priority 2005, published 2007).
Where a name gives a salt, the structure may show the parent alone.

Target: T1, human urotensin II receptor (Homo sapiens, UniProt Q9UKP6)
T1 construct: expressed in transfected cells; host or cells: NIH3T3 cells
T1 sequence (Q9UKP6 1-389): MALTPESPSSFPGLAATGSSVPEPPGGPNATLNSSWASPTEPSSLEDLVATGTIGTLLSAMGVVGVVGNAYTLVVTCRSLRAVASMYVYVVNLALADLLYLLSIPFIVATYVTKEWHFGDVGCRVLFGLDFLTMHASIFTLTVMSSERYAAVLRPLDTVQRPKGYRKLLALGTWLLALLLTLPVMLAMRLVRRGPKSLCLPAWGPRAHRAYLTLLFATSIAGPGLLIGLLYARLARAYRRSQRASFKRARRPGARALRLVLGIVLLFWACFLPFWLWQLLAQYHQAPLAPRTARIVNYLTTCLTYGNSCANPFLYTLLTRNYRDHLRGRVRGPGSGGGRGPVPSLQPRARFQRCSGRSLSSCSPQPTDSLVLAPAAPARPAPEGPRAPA
Test: Receptor Selection and Amplification (R-SAT) functional assay, NIH3T3 cells transfected with human urotensin II receptor and β-galactosidase marker
Type: cell-based
Settings: for EC50 / pEC50: Table 3, negative of the log EC50 in molarity, average ± standard deviation (or range) of determinations, eight doses in triplicate; for Emax: NIH3T3, Table 3, percent activation normalized to the reference ligand assigned 100%, read-out: Efficacy
Protocol: The functional receptor assay, Receptor Selection and Amplification Technology (R-SAT™), was used (with minor modifications from the procedure described previously (Brann, M. R. U.S. Pat. No. 5,707,798, 1998; Chem. Abstr. 1998, 128, 111548) to screen compounds for efficacy at the UII receptor. The RSAT assay was conducted as described herein.
Briefly, NIH3T3 cells were grown in tissue culture treated rollerbottles to 40-80% confluence in Dulbecco's modified Eagle's medium (DMEM) supplemented with 10% bovine calf serum (Hyclone) and 1% penicillin/streptomycin/glutamine (Invitrogen). Cells were transfected for 12-18 hours with the human urotensin II receptor and the β-galactosidase marker. After transfection, the cells were trypsinized, harvested and frozen in DMEM containing 10% DMSO. Frozen cells were later thawed and tested for a response to a control compound to perform quality control before initiation of pharmacological testing, ensuring the correct pharmacological response and sufficient sensitivity. To initiate the pharmacological assay, cells were thawed rapidly and prepared in DMEM media containing 0.4% calf serum (Hyclone), 30% UltraCulture (Biowhittaker), and 1% penicillin/streptomycin/glutamine (Invitrogen), and then plated at 10,000-40,000 cells per well of a 96½ area plate that contained either the test compounds or reference ligands. Cells were then grown in a humidified atmosphere with 5% ambient CO2 for five days. Media was then removed from the plates and marker gene activity was measured by the addition of the beta-galactosidase substrate ONPG (in PBS with 5% NP-40). The resulting colorimetric reaction was measured in a spectrophotometric plate reader (Titertek Inc.) at […].
pEC50 represents the negative logarithm of the concentration of ligand that caused 50% activation of the basal receptor response. Percent activation was calculated as the difference between the absorbance measurements in the absence of added ligand compared with that in the presence of saturating concentrations of ligand normalized to the absorbance difference for the reference ligand, which was assigned a value of 100%.
Results were determined in R-SAT assays and are expressed as pEC50, the negative of the log EC50 in molarity. Results are the average±standard deviation of 2-X determinations of the EC50 where each compound was tested in eight doses in triplicate.

SMILES | EC50 | Efficacy (Table 3, percent activation normalized to the reference ligand assigned 100%, oxalate) | Emax | pEC50
CN(C)CCC(NC(=O)c1ccc(-c2ccccc2)cc1)c1ccc(Cl)cc1.O=C(O)C(=O)O (single isomer, unassigned; (+)) [(+) 5o, (+)-N-[1-(4-Chlorophenyl)-3-dimethylamino-propyl]-4-phenyl-benzamide oxalate] | 0.0123 to 0.0275 µM | 104-108% |  | 
CN(C)CCC(NC(=O)c1ccc(-c2ccccc2)cc1)c1ccc(Cl)cc1 (single isomer, unassigned; (-)) [(−) 5o, (−)-N-[1-(4-Chlorophenyl)-3-dimethylamino-propyl]-4-phenyl-benzamide oxalate] | 1.15 to 1.2 µM |  | 112 to 114% | 
CO[C@@H](C(=O)NC(CCN(C)C)c1ccc(Cl)cc1)c1ccccc1 (single isomer, unassigned; (-)) [(−) 5s, oxalate] | 0.871 µM |  | 165 ± 10% | 
Cc1ccccc1C(=O)OC(CCN(C)C)c1ccc(Cl)cc1.Cl (stereo not shown) [4a, 1-(4-Chlorophenyl)-3-dimethylamino-propyl 2-methyl-benzoate HCl] |  |  | 126 ± 34% | 5.77 ± 0.01
CCc1ccccc1C(=O)OC(CCN(C)C)c1ccc(Cl)cc1.Cl (stereo not shown) [4b, 1-(4-Chlorophenyl)-3-dimethylamino-propyl 2-ethyl-benzoate HCl] |  |  | 128 ± 31% | 5.89 ± 0.05
Cc1ccc(C(=O)OC(CCN(C)C)c2ccc(Cl)cc2)cc1.Cl (stereo not shown) [4c, 1-(4-Chlorophenyl)-3-dimethylamino-propyl 4-methyl-benzoate HCl] |  |  | 56 ± 6% | 5.56 ± 0.01
Cc1cccc(C(=O)OC(CCN(C)C)c2ccc(Cl)cc2)c1C (stereo not shown) [4d, 1-(4-Chlorophenyl)-3-dimethylamino-propyl 2,3-dimethyl-benzoate HCl] | 1.26 µM |  | 94 ± 42% | 
COc1cccc(C(=O)OC(CCN(C)C)c2ccc(Cl)cc2)c1C (stereo not shown) [4e, 1-(4-Chlorophenyl)-3-dimethylamino-propyl 3-methoxy-2-methyl-benzoate HCl] | 2.09 µM |  | 120 ± 57% | 
Cc1c(Cl)cccc1C(=O)OC(CCN(C)C)c1ccc(Cl)cc1.Cl (stereo not shown) [4f, 1-(4-Chlorophenyl)-3-dimethylamino-propyl 3-chloro-2-methyl-benzoate HCl] |  |  | 118 ± 37% | 5.95 ± 0.05
Cc1cc(Br)ccc1C(=O)OC(CCN(C)C)c1ccc(Cl)cc1.Cl (stereo not shown) [4g, 1-(4-Chlorophenyl)-3-dimethylamino-propyl 4-bromo-2-methyl-benzoate HCl] |  |  | 95 ± 37% | 5.97 ± 0.24
Cc1ccc(C)c(C(=O)OC(CCN(C)C)c2ccc(Cl)cc2)c1.Cl (stereo not shown) [4h, 1-(4-Chlorophenyl)-3-dimethylamino-propyl 2,5-dimethyl-benzoate HCl] |  |  | 86% | 5.73 ± 0.15
Cc1cc(C)c(C(=O)OC(CCN(C)C)c2ccc(Cl)cc2)cc1C.Cl (stereo not shown) [4i, 1-(4-Chlorophenyl)-3-dimethylamino-propyl 2,4,5-trimethyl-benzoate HCl] |  |  | 60 ± 4% | 6.33 ± 0.6
Cc1ccsc1C(=O)OC(CCN(C)C)c1ccc(Cl)cc1.Cl (stereo not shown) [4j, 1-(4-Chlorophenyl)-3-dimethylamino-propyl 3-methyl-thiophene-2-carboxylate HCl] |  |  | 119 ± 44% | 5.60 ± 0.05
CN(C)CCC(OC(=O)c1cccc2ccccc12)c1ccc(Cl)cc1.Cl (stereo not shown) [4k, 1-(4-Chlorophenyl)-3-dimethylamino-propyl naphthalene-1-carboxylate HCl] |  |  | 95 ± 24% | 5.64 ± 0.02
CN(C)CCC(OC(=O)c1ccc2ccccc2c1)c1ccc(Cl)cc1.Cl (stereo not shown) [4l, 1-(4-Chlorophenyl)-3-dimethylamino-propyl naphthalene-2-carboxylate HCl] |  |  | 49 ± 28% | 5.68 ± 0.04
CN(C)CCC(OC(=O)c1ccc(-c2ccccc2)cc1)c1ccc(Cl)cc1.Cl (stereo not shown) [4m, 1-(4-Chlorophenyl)-3-dimethylamino-propyl 4-phenyl-benzoate HCl] |  |  | 53 ± 27% | 6.28 ± 0.14

SMILES | EC50 | Efficacy (Table 3, percent activation normalized to the reference ligand assigned 100%, oxalate) | Emax | pEC50
CN(C)CCC(OC(=O)c1cc2ccccc2n1C)c1ccc(Cl)cc1 (stereo not shown) [4n, 1-(4-Chlorophenyl)-3-dimethylamino-propyl 1-methyl-indole-2-carboxylate HCl] | 1.91 µM |  | 104 ± 34% | 
CN(C)CCC(OC(=O)c1cn(C)c2ccccc12)c1ccc(Cl)cc1 (stereo not shown) [4o, 1-(4-Chlorophenyl)-3-dimethylamino-propyl 1-methyl-indole-3-carboxylate HCl] | 1.62 µM |  | 115 ± 71% | 
COc1ccc(C(=O)OC(CCN(C)C)c2ccc(Cl)cc2)cc1 (stereo not shown) [4p, 1-(4-Chlorophenyl)-3-dimethylamino-propyl 4-methoxy-benzoate oxalate] | 1.55 to 3.72 µM |  | 52 to 101% | 
CN(C)CCC(OC(=O)c1ccc(C(F)(F)F)cc1)c1ccc(Cl)cc1 (stereo not shown) [4q, 1-(4-Chlorophenyl)-3-dimethylamino-propyl 4-trifluoromethyl-benzoate oxalate] | 1.17 to 2.09 µM |  | 36 to 38% | 
CN(C)CCC(NC(=O)c1ccccc1)c1ccc(Cl)cc1.Cl (stereo not shown) [5a, N-[1-(4-Chlorophenyl)-3-dimethylamino-propyl]-benzamide HCl] |  |  | 158 ± 39% | 5.85 ± 0.01
Cc1ccccc1C(=O)NC(CCN(C)C)c1ccc(Cl)cc1.O=C(O)C(=O)O (stereo not shown) [5b, N-[1-(4-Chlorophenyl)-3-dimethylamino-propyl]-2-methyl-benzamide oxalate] |  |  | 175 ± 15% | 5.45 ± 0.04
CCc1ccccc1C(=O)NC(CCN(C)C)c1ccc(Cl)cc1 (stereo not shown) [5c, N-[1-(4-Chlorophenyl)-3-dimethylamino-propyl]-2-ethyl-benzamide oxalate] | 1.02 µM |  | 140 ± 14% | 
COc1ccc(C(=O)NC(CCN(C)C)c2ccc(Cl)cc2)cc1.O=C(O)C(=O)O (stereo not shown) [5d, N-[1-(4-Chlorophenyl)-3-dimethylaminopropyl]-4-methoxy-benzamide oxalate] |  |  | 148 ± 33% | 5.87 ± 0.2
CN(C)CCC(NC(=O)c1ccc(N(C)C)cc1)c1ccc(Cl)cc1.O=C(O)C(=O)O (stereo not shown) [5e, N-[1-(4-Chlorophenyl)-3-dimethylaminopropyl]-4-dimethylamino-benzamide oxalate] |  |  | 145 ± 25% | 5.87 ± 0.17
Cc1cccc(C(=O)NC(CCN(C)C)c2ccc(Cl)cc2)c1C.O=C(O)C(=O)O (stereo not shown) [5f, N-[1-(4-Chlorophenyl)-3-dimethylamino-propyl]-2,3-dimethyl-benzamide oxalate] |  |  | 159 ± 1% | 5.44 ± 0.08
COc1cccc(C(=O)NC(CCN(C)C)c2ccc(Cl)cc2)c1C.O=C(O)C(=O)O (stereo not shown) [5g, N-[1-(4-Chlorophenyl)-3-dimethylamino-propyl]-3-methoxy-2-methyl-benzamide oxalate] |  |  | 179 ± 11% | 5.37 ± 0.14
Cc1c(Cl)cccc1C(=O)NC(CCN(C)C)c1ccc(Cl)cc1.O=C(O)C(=O)O (stereo not shown) [5h, N-[1-(4-Chlorophenyl)-3-dimethylamino-propyl]-3-chloro-2-methyl-benzamide oxalate] |  |  | 142 ± 14% | 5.76 ± 0.13
Cc1ccc(C(=O)NC(CCN(C)C)c2ccc(Cl)cc2)c(C)c1.O=C(O)C(=O)O (stereo not shown) [5i, N-[1-(4-Chlorophenyl)-3′-dimethylamino-propyl]-2,4-dimethyl-benzamide oxalate] |  |  | 147 ± 29% | 5.81 ± 0.06
Cc1ccc(C)c(C(=O)NC(CCN(C)C)c2ccc(Cl)cc2)c1.O=C(O)C(=O)O (stereo not shown) [5j, N-[1-(4-Chlorophenyl)-3-dimethylamino-propyl]-2,5-dimethyl-benzamide oxalate] |  |  | 164 ± 20% | 5.54 ± 0.04
Cc1cccc(Cl)c1C(=O)NC(CCN(C)C)c1ccc(Cl)cc1.O=C(O)C(=O)O (stereo not shown) [5k, N-[1-(4-Chlorophenyl)-3-dimethylamino-propyl]-6-chloro-2-methyl-benzamide oxalate] |  |  | 105 ± 4% | 5.29 ± 0.09
CN(C)CCC(NC(=O)c1ccc2c(c1)OCO2)c1ccc(Cl)cc1.O=C(O)C(=O)O (stereo not shown) [5l, N-(1-(4-chlorophenyl)-3-(dimethylamino)propyl)benzo [d][1,3]dioxole-5-carboxamide oxalate] |  |  | 148 ± 32% | 5.67 ± 0.17
